# Patent publication US7781005B2, “Sweetener composition” (Ajinomoto Co., Inc., priority 2004, dated 2010)
# Assays:
# [1] = Decomposition of monatin in solution by ultraviolet light (findings of the inventor); type: physicochemical; conditions: solution state
# [2] = Photodecomposition of monatin in beverage model solution in PET container under D65 fluorescence lamp, HPLC; type: physicochemical; conditions: D65 lamp 3000 lux, 165 hr
# Method: Temperature: 25° C. constant temperature room (forced circulation).
# HPLC Analysis Conditions:
# The pH of a beverage model solution, a (citric acid 2 g, sodium benzoate 0.045 g)/L solution, was adjusted with 8N sodium hydroxide. (2R, 4R)monatin potassium salt (25 mg) and various additives were dissolved in the adjusted beverage model solution (500 mL) and filled in PET containers. […] The solution was simultaneously filled in a 20 ml screw cap vial and left standing for the same time in the same constant temperature room under a light shield. These light exposure solutions and light shield solutions were subjected to HPLC analysis, and photodecomposition rates were calculated by the following formula: The photodecomposition rate (%)=(1−(mass % concentration of monatin in light exposure solution/mass % concentration of monatin in light shield solution))×100 […]
compound,measurement,setting,value
"(2S,4R)monatin",decomposition by ultraviolet light,[1],tend to be more easily decomposed by ultraviolet light than the other isomers
N[C@@H](C[C@@](O)(Cc1c[nH]c2ccccc12)C(=O)O)C(=O)O [monatin],photodecomposition rate,"[2]; pH 2.8, 50 ppm",52.5%
same,photodecomposition rate,"[2]; pH 3.1, 50 ppm",45.1%
same,photodecomposition rate,"[2]; pH 3.5, 50 ppm",27.6%
same,photodecomposition rate,"[2]; pH 4, 50 ppm",15.9%
same,photodecomposition rate,"[2]; pH 4.5, 50 ppm",10.2%
same,photodecomposition rate,"[2]; pH 5.5, 50 ppm",4.8%
same,photodecomposition rate,"[2]; pH 6.5, 50 ppm",4.3%
same,decomposition by ultraviolet light,[1],tends to decompose when exposed to ultraviolet light
"(2R,4S)monatin",decomposition by ultraviolet light,[1],tend to be more easily decomposed by ultraviolet light than the other isomers
"N[C@@H](Cc1c[nH]c2ccccc12)C(=O)O [Trp, tryptophan, reference compound]",photodecomposition rate,"[2]; pH 2.8, 50 ppm",7.3%
same,photodecomposition rate,"[2]; pH 3.1, 50 ppm",6.0%
same,photodecomposition rate,"[2]; pH 3.5, 50 ppm",6.2%
same,photodecomposition rate,"[2]; pH 4, 50 ppm",5.5%
same,photodecomposition rate,"[2]; pH 4.5, 50 ppm",5.4%
same,photodecomposition rate,"[2]; pH 5.5, 50 ppm",12.5%
same,photodecomposition rate,"[2]; pH 6.5, 50 ppm",55.1%
